{"source": "patent US20090269770A1", "about": "“METHODS FOR EVALUATION PROGNOSIS AND FOLLOW-UP OF DRUG TREATMENT OF PSYCHIATRIC DISEASES OR DISORDERS” (priority 2008, published 2009)", "key": {"[1]": {"tested_on": "PMC from schizophrenic patients", "experiment": "Real-time RT-PCR of IL8Rα, CCR1, CCR7, RGS7 mRNAs in PMC (6 patients)", "format": "in vivo, human", "experimental": "FIGS. 1A-1D show real-time RT-PCR analysis of CCR1 (1A), CCR7 (1B), IL8Ra (1C) and RGS7 (1D) mRNAs in PMCs from schizophrenic patients treated with an antipsychotic drug combined with the antidepressant agent fluvoxamine. Fluvoxamine (100 mg/day) was added in an open study format to the constant antipsychotic treatment of 6 patients suffering from chronic schizophrenia with persistent negative symptoms. Total RNA, isolated from PMCs of these patients at baseline (day 0, BL) as well as following 3 and 6 weeks (3W and 6W, respectively) of the combined treatment, was reverse transcribed. cDNA was amplified in real-time PCR using suitable primers for CCR1, CCR7, IL8Ra and RGS7, as described in the Experimental section hereinafter. The relative expression level of a given mRNA was assessed by normalizing to the reference gene peptidylprolyl isomerase B (cyclophilin B, PPIB). For each patient, the expression level of each one of the genes at baseline was arbitrarily set as 1, and the gene expression levels at 3 and 6 weeks were calculated relative to baseline. Lines connecting points indicate samples of the same patient. Horizontal lines indicate group means. Student's t-test *p<0.05; **p<0.01 for 3 or 6 weeks of fluvoxamine add-on compared with baseline.\n(§1) Two μg of total RNA were denatured and reverse transcribed using random hexanucleotides (0.5 μg/μl) as previously described (Chertkow et al., 2006). Real-time quantitative assessment was performed using LightCycler with FastStart DNA Master SYBR Green I ready-to use PCR mix kits according to the manufacture's protocol (Roche Diagnostics, Mannheim, Germany). Forty ng cDNA was amplified per sample. Each experimental set included one reaction with water as template to control for cross contamination. Amplified products were visualized on 1.5% agarose gel. The sequences of the primers, the experimental conditions and the melting temperature of the products are described in Table 2 hereinafter. The results were analyzed in real-time on the provided program of the LightCycler and normalized against a reference gene in order to correct sample-to-sample variation. […] Expression stability of these genes was determined in our samples with ‘Normfinder’ Excel applet (Andersen et al., 2004); PPIB was chosen as the reference gene for normalization. […]\nThe biochemical data were analyzed by one way analysis of variance (ANOVA) followed by Dunnett's test. […] Clinical response was assessed with repeated measure ANOVA.\nIn this study, the significant gene expression changes in the PMC of schizophrenic patients, observed in the customized array and shown in Example 1, were verified by real-time RT-PCR. […] The expression level of each candidate was assessed in all samples."}, "[2]": {"tested_on": "PMC from schizophrenic patients", "experiment": "Real-time RT-PCR of GABAAβ2 and PKCβ2 mRNAs in PMC (8 patients)", "format": "in vivo, human", "experimental": "FIGS. 2A-2B show real-time RT-PCR analysis of GABAAβ2 (2A) and PKCβ2 (2B) mRNAs in PMCs from schizophrenic patients treated with an antipsychotic drug combined with the antidepressant agent fluvoxamine. Fluvoxamine (100 mg/day) was added in an open study format to the constant antipsychotic treatment of 8 patients suffering from chronic schizophrenia with persistent negative symptoms. Total RNA, isolated from PMCs of these patients at baseline (day 0, BL) as well as following 1, 3 and 6 weeks (1W, 3W and 6W, respectively) of the combined treatment, was reverse transcribed. cDNA was amplified in real-time PCR using suitable primers for GABAAβ2 and PKCβ2, as described in the Experimental section. The relative expression level of a given mRNA was assessed by normalizing to the reference gene PPIB. For each patient, the expression level of each one of the genes at baseline was arbitrarily set as 1, and the gene expression levels at 3 and 6 weeks were calculated relative to baseline. Lines connecting points indicate samples of the same patient. Dash line indicates average of the samples of different objects. Student's t-test *p<0.05; **p<0.01 for 1, 3 or 6 weeks of fluvoxamine add-on compared with baseline.\nas §1, with “Amplified products were visualized on 1.5% agarose gel. The sequences of the primers, the experimental conditions and the melting temperature of the products are described in Table 2 hereinafter.” left out"}, "[3]": {"conditions": "after 3-6 weeks of the combined treatment"}}}
{"smiles": "COCCCC/C(=N\\OCCN)c1ccc(C(F)(F)F)cc1", "note": "[fluvoxamine]", "values": [{"measurement": "CCR7 mRNA expression", "setting": "[1]; 3 and 6 weeks, among the patients", "value": "did not show a consistent trend"}, {"measurement": "IL8Rα mRNA expression", "setting": "[1]; after 3 and 6 weeks of add-on treatment vs initial level, normalized to PPIB", "value": "reduced significantly"}, {"measurement": "RGS7 mRNA expression", "setting": "[1]; after 6 weeks", "value": "significantly reduced"}, {"measurement": "CCR1 mRNA expression", "setting": "[1]; at both time points (3 and 6 weeks), in 5 out of 6 patients", "value": "reduced"}, {"measurement": "average GABAAβ2 expression increase compared with day 0", "setting": "[2]; [3]", "value": "40-50%"}, {"measurement": "average PKCβ2 expression decrease compared with day 0", "setting": "[2]; [3]", "value": "≥ 90", "unit": "%"}, {"measurement": "average PKCβ2 expression decrease compared with day 0", "setting": "[2]; after one week of the combined treatment", "value": "about 30%"}]}
